Measurements from patent publication US9593127B2, “Heterocyclylalkyne derivatives and their use as modulators of mGluR5 receptors” (RECORDATI IRELAND LTD., priority 2014, dated 2017).

Assays:
[1] = target: T1, human mGlu5 receptor (CHO T-REx h-mGluR5 cells) (Homo sapiens (Human), UniProt P41594); assay: Calcium fluorescence measurement, antagonist potency against EC80 of quisqualate; format: cell-based; details: agonist quisqualate at EC80; read-out: h.c. mgluR5 Calcium IC50
Text: (§1) Cell lines stably transfected were generated using inducible expression vectors encoding human mGlu5 receptor using the Tetracycline-Regulated Expression system (T-REx™ system, Invitrogen, Life Technologies). Human mGluR5 open reading frame (ORF), comprehensive of the stop codon, were cloned into the pcDNA4/TO/myc-His™ A vector, carrying the TetO2 sequences. The insertion site was HindIII-PstI for mGluR5 receptors. The obtained constructs were then transfected into the T-REx CHO™ cell line using the FuGENE protocol (Roche); the CHO T-REx™ cell line stably expresses the Tet repressor (from the pcDNA6/TR plasmid) under the selection of blasticidin, 10 μg/ml. Stable clones were obtained selecting with zeocine 1 mg/ml and maintaining in ULTRA CHO medium (LONZA) supplemented with dialyzed FBS, zeocin, blasticidine, at 37° C., in an atmosphere of 5% CO2. The expression of h-mGluR5 receptors was de-repressed with 1 μg/ml tetracycline for 18 h before binding experimentation, while the expression of h-mGluR5 receptors was de-repressed respectively with 3 ng/ml and 10 ng/ml tetracycline for 18 h before calcium fluorescence experimentation.
(§2) Cells were seeded into black-walled, clear-bottom, 96-well plates at a density of 80000 cell/well, in RPMI (without Phenol Red, without L-glutamine; Gibco LifeTechnologies, CA) supplemented with 10% dialyzed FBS. Following 18-h incubation with tetracycline, the cells were loaded with […] Ca^2+—sensitive fluorescent dye Fluo-4/AM (Molecular Probes) in Hanks' balanced saline solution (HBSS, Gibco LifeTechnologies, CA) with 20 mM Hepes (Sigma) and 2.5 mM probenecid (Sigma), for 1 h at 37° C. The cells were washed three times with HBSS to remove extracellular dye. Fluorescence signals were measured by using the fluorescence microplate reader Flexstation III (Molecular Devices) at sampling intervals of 1.5 s for 60 s.
(§3) The antagonist potency was determined using the EC80 of the quisqualate used as agonist and the potentiation of mGlu5 activation was determined using the EC20 of the agonist (quisqualate or glutamate). The compounds were applied 10 minutes before the application of the agonist. For binding and calcium assay studies, the compounds were dissolved in DMSO or demineralized water according to their solubility. All the reported doses were those of the corresponding salts or bases.

[2] = target: T1, human mGlu5 receptor (CHO T-REx h-mGluR5 cells); assay: Calcium fluorescence measurement, potentiation of mGlu5 activation at EC20 of quisqualate; format: cell-based; details: for Fold Inc. Quisq. / Fold Shift 1 microM Quisq.: agonist quisqualate; for EC50: potentiation, agonist quisqualate at EC20, read-out: EC50 nM Quisq.
Text: as §1, §2, §3

[3] = target: T1, human mGlu5 receptor (CHO T-REx h-mGluR5 cells); assay: Radioligand binding assay at cloned mGluR5 ([3H]MPEP displacement); details: 4 nM [3H]MPEP, read-out: h.c. mglu R5 IC50
Text: as §1
Affinity at transmembrane glutamate metabotropic mGluR5 receptor subtypes was evaluated according to the methods of Anderson (Anderson et al., J Pharmacol. Exp. Ther., (2002), Vol. 303(3), pp. 1044-51), with some modifications. Cloned mGluR5 was obtained by re-suspending CHO T-REx h-mGluR5 cells (50 μg/well) in 20 mM HEPES, 2 mM MgCl2, 2 mM CaCl2, pH 7.4, that then were incubated in a final volume of 1 ml for 60 min at 25° C. with 4 nM [^3H]MPEP in the absence or presence of competing drugs. Non-specific binding was determined in the presence of […] MPEP. The incubation was stopped by addition of cold Tris buffer pH 7.4 and rapid filtration through 0.2% polyethyleneimine pretreated Filtermat 1204-401 (Perkin Elmer) filters. The filters were then washed with cold buffer and the radioactivity retained on the filters was counted by liquid scintillation spectrometry (Betaplate 1204 BS-Wallac).
as §3
The inhibition curves of the tested compounds at native and cloned mGluR1 and mGluR5 subtypes were determined by nonlinear regression analysis using software Prism 4.0 (Graphpad, San Diego, Calif.). The IC50 values and pseudo-Hill slope coefficients were estimated by the program. The values for the inhibition constant, Ki, were calculated according to the equation Ki=IC50/(1+[L]/Kd), where [L] is the concentration of radioligand and Kd is the equilibrium dissociation constant of the radioligand-receptor complex (Cheng et al., Biochem. Pharmacol. (1973), Vol. 22, pp. 3099-3108).

T1 sequence (P41594 21-1212): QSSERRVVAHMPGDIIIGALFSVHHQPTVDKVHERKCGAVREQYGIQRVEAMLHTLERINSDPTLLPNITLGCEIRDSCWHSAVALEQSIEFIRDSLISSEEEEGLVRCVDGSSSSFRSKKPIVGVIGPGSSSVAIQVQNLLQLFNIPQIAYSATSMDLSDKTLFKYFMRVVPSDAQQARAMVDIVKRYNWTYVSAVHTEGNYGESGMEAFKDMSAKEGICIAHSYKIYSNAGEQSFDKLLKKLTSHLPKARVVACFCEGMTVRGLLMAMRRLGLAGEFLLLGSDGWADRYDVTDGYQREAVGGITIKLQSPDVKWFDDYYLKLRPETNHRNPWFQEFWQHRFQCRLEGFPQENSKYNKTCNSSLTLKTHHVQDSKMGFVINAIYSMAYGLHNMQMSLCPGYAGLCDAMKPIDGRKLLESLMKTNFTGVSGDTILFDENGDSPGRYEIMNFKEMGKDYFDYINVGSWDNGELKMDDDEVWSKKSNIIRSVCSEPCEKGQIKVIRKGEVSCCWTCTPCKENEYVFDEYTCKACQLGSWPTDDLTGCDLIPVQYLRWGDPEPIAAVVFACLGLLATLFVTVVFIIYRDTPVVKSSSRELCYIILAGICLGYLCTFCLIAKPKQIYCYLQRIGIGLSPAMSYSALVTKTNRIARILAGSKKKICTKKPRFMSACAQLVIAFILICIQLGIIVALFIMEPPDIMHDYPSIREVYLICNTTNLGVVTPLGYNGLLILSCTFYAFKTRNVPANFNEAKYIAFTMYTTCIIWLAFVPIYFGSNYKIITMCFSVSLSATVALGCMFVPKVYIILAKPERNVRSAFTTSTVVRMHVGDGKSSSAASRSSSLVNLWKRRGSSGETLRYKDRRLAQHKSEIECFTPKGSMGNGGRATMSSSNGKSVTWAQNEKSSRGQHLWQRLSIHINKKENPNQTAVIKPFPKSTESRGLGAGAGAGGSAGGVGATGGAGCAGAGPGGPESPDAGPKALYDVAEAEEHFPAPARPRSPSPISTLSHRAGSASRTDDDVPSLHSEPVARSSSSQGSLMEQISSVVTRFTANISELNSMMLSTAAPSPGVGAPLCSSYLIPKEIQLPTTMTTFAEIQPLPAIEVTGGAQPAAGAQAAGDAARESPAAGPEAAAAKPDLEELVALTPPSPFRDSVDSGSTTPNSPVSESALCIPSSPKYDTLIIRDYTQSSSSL

Row | Compound | IC50 [1] [nM] | Fold Inc. Quisq. [2] [fold] | IC50 [3] [nM] | Fold Shift 1 microM Quisq. [2] [fold] | EC50 [2] [nM]
1 | O=C(c1ccco1)N1CCC2C(C#Cc3cccc(Cl)c3)=NOC21 (centres unmarked) [Example 2, [3-[2-(3-chlorophenyl)ethynyl]-3a,4,5,6a-tetrahydropyrrolo[3,2-d]isoxazol-6-yl]-(2-furyl)methanone] | > 1000 | 0 | 29.6 |  | 
2 | CN(C)C(=O)N1CCC2C(C#Cc3cccc(Cl)c3)=NOC21 (centres unmarked) [Example 7, 3-[2-(3-chlorophenyl)ethynyl]-N,N-dimethyl-3a,4,5,6a-tetrahydropyrrolo[3,2-d]isoxazole-6-carboxamide] | 212 |  | 59.2 |  | 
3 | CCN(CC)C(=O)N1CCC2C(C#Cc3cccc(C)c3)=NOC21 (centres unmarked) [Example 14, N,N-diethyl-3-[2-(m-tolyl)ethynyl]-3a,4,5,6a-tetrahydropyrrolo[3,2-d]isoxazole-6-carboxamide] | > 1000 |  | 14.8 |  | 
4 | Cc1cccc(C#CC2=NOC3C2CCN3C(=O)N2CCOCC2)c1 (centres unmarked) [Example 13, morpholino-[3-[2-(m-tolyl)ethynyl]-3a,4,5,6a-tetrahydropyrrolo[3,2-d]isoxazol-6-yl]methanone] | > 1000 | 2.06 | 50 | 3.2 | 131
5 | CC(C)(C)OC(=O)N1CCC2C(C#Cc3cccc(Cl)c3)=NOC21 (centres unmarked) [Example 1, tert-butyl 3-[2-(3-chlorophenyl)ethynyl]-3a,4,5,6a-tetrahydropyrrolo[3,2-d]isoxazole-6-carboxylate] | > 1000 | 1.96 | 3.87 | 1.8 | 37.1
6 | Cc1cccc(C#CC2=NOC3C2CCN3C(=O)OC(C)(C)C)c1 (centres unmarked) [Example 10, tert-butyl 3-[2-(m-tolyl)ethynyl]-3a,4,5,6a-tetrahydropyrrolo[3,2-d]isoxazole-6-carboxylate] | > 1000 | 3.5 | 3.65 | 2.2 | 141
7 | O=C(N1CCCCC1)N1CCC2C(C#Cc3cccc(Cl)c3)=NOC21 (centres unmarked) [Example 8, [3-[2-(3-chlorophenyl)ethynyl]-3a,4,5,6a-tetrahydropyrrolo[3,2-d]isoxazol-6-yl]-(1-piperidyl)methanone] | > 1000 |  | 12.5 |  | 
8 | CON(C)C(=O)N1CCC2C(C#Cc3cccc(C)c3)=NOC21 (centres unmarked) [Example 15, N-methoxy-N-methyl-3-[2-(m-tolyl)ethynyl]-3a,4,5,6a-tetrahydropyrrolo[3,2-d]isoxazole-6-carboxamide] | 21.1 |  | 22 |  | 
9 | O=C(N1CCCC1)N1CCC2C(C#Cc3cccc(Cl)c3)=NOC21 (centres unmarked) [Example 9, [3-[2-(3-chlorophenyl)ethynyl]-3a,4,5,6a-tetrahydropyrrolo[3,2-d]isoxazol-6-yl]-pyrrolidin-1-yl-methanone] | > 1000 |  | 15 |  | 
10 | CCOC(=O)N1CCC2C(C#Cc3cccc(Cl)c3)=NOC21 (centres unmarked) [Example 3, ethyl 3-[2-(3-chlorophenyl)ethynyl]-3a,4,5,6a-tetrahydropyrrolo[3,2-d]isoxazole-6-carboxylate] | 54.8 |  | 81.5 |  | 
11 | Cc1cccc(C#CC2=NOC3C2CCN3C(=O)N2CCCC2)c1 (centres unmarked) [Example 11, [3-[2-(m-tolyl)ethynyl]-3a,4,5,6a-tetrahydropyrrolo[3,2-d]isoxazol-6-yl]-pyrrolidin-1-yl-methanone] | > 1000 |  | 17 |  | 
